Experimental data from publication PMC11075139 (RSC Advances, 2024).

How the values were obtained:
Aβ1–42 peptide = Aβ1–42 peptide (Homo sapiens, UniProt P05067); experiment: Self-mediated Aβ1–42 aggregation assay; format: biochemical; details: for inhibition of Aβ fibrils: ThT fluorescence, after 24 hours of equimolar treatment with Aβ1–42
CA-II = details: read-out: Ki CA-II inhibition; cited from earlier work
AChE = details: read-out: Ki AChE; non-competitive inhibitor; cited from earlier work
human CA-II = human CA-II (Homo sapiens, UniProt P00918); experiment: In vitro human CA-II inhibition assay; format: biochemical
[1] = biological target: electric eel acetylcholinesterase (eeAChE) (Electrophorus electricus, UniProt O42275); experiment: Acetylcholinesterase inhibition assay; format: biochemical; details: for IC50: IC50 (μM) ± SEM eeAChE, mean ± SEM, n = 3; for SI (Selectivity index): Selectivity index = IC50 of BChE/IC50 of AChE
Chain of electric eel acetylcholinesterase (eeAChE) (O42275 24-633): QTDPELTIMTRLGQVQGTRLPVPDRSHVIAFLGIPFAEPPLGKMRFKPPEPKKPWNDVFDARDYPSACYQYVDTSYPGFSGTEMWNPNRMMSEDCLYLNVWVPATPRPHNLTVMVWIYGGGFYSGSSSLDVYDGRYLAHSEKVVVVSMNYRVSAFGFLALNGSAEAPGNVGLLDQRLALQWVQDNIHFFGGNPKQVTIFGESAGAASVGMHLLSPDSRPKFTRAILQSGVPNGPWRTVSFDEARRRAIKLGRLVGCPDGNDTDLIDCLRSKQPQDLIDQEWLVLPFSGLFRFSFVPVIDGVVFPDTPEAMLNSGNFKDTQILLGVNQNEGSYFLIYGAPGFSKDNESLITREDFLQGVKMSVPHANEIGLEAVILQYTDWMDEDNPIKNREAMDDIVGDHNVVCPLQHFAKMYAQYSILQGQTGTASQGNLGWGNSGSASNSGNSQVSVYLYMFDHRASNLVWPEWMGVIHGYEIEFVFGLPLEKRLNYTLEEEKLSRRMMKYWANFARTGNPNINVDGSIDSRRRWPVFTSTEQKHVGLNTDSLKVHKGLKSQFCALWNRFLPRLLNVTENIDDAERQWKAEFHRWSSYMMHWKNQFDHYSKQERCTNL

[2] = for Prediction of CNS penetration: from PAMPA-BBB Pe; for BBB penetration in PAMPA assay: stated in words
in vitro = details: PAMPA
eqBChE = eqBChE (Equus caballus, UniProt P81908); experiment: Butyrylcholinesterase inhibition assay; format: biochemical
Chain of eqBChE (P81908 whole entry): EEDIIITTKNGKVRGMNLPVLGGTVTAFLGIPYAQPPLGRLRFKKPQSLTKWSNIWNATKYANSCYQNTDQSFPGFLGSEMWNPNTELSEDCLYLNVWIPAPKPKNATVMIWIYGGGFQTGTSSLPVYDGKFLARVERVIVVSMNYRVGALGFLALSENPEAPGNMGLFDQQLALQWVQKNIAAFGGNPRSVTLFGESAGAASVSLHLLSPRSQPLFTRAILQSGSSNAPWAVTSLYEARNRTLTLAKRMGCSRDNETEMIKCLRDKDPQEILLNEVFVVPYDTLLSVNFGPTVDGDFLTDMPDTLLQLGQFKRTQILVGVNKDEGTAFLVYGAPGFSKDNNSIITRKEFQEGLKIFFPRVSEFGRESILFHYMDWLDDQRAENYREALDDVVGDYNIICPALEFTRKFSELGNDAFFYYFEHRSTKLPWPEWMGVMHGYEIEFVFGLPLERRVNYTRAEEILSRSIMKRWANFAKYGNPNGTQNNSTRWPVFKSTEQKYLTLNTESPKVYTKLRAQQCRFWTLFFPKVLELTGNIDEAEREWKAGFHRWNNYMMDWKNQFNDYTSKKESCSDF

SH-SY5Y cells = experiment: Cell viability/neurotoxicity assay; format: cell-based, human

Chain of Aβ1–42 peptide (P05067 672-713): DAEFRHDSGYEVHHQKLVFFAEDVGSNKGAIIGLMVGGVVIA

Compound	IC50 (human CA-II)	IC50 [1]	SI (Selectivity index) [1]	IC50 (eqBChE)	IC50 (Aβ1–42 peptide)	other results
COc1cc(/C=C/C(=O)CC(=O)/C=C/c2ccc(O)c(OC)c2)ccc1O [Curcumin, reference compound]						inhibition of Aβ fibrils (Aβ1–42 peptide): approximately 60%
C[C@H](CCC(=O)O)[C@H]1CC[C@H]2[C@@H]3CC[C@@H]4C[C@H](O)CC[C@]4(C)[C@H]3C[C@H](O)[C@]12C [Compound 5, deoxycholic acid]						Ki (CA-II): 51 µM
isosarcodine						Ki (AChE): 21.8 µM
CC(=O)C1CC[C@H]2[C@@H]3CC=C4CC(N)CC[C@]4(C)[C@H]3CC[C@]12C (stereo partly drawn) [Compound 12, 1-((8S,9S,10R,13S,14S)-3-amino-10,13-dimethyl-2,3,4,7,8,9,10,11,12,13,14,15,16,17-tetradecahydro-1H-cyclopenta[a]phenanthren-17-yl)ethan-1-one]	73.2 ± 1.14 µM	67.7 ± 1.09 µM				Prediction of CNS penetration [2]: High (‘CNS+’ (prediction of high BBB permeation); Pe (10^−6 cm s^−1) > 4.39); BBB penetration in PAMPA assay [2]: high BBB penetration; Papp (in vitro): 19.6 ×10⁻⁶ cm/s
C[C@]12CCC(NC(=S)Nc3ccc(S(N)(=O)=O)cc3)CC1=CC[C@@H]1[C@@H]2CC[C@]2(C)C(C(=O)CNCCc3ccccc3)CC[C@@H]12 (stereo partly drawn) [Compound 24, 4-(3-((8S,9S,10R,13S,14S)-10,13-Dimethyl-17-(phenethylglycyl)-2,3,4,7,8,9,10,11,12,13,14,15,16,17-tetradeca-hydro-1H-cyclopenta[a]phenanthren-3-yl)thioureido)benzenesulfonamide]	5.44 ± 0.14 µM	1.61 ± 0.1 µM	8.0	12.8 ± 0.45 µM	29.6 ± 1.21 µM	
C[C@]12CCC(NC(=S)Nc3ccc(S(N)(=O)=O)cc3)CC1=CC[C@@H]1[C@@H]2CC[C@]2(C)C(C(=O)CNCc3ccccc3)CC[C@@H]12 (stereo partly drawn) [Compound 25, 4-(3-((8S,9S,10R,13S,14S)-17-(Benzylglycyl)-10,13-di-methyl-2,3,4,7,8,9,10,11,12,13,14,15,16,17-tetradeca-hydro-1H-cyclopenta[a]phenanthren-3-yl)thioureido)benzenesulfonamide]	1.02 ± 0.01 µM	0.98 ± 0.1 µM	11.5	11.27 ± 0.11 µM	12.8 ± 0.15 µM	
Cc1nnc2n1-c1ccc(Cl)cc1C(c1ccccc1)=NC2 [Alprazolam, reference compound]						Prediction of CNS penetration [2]: High (‘CNS+’ (prediction of high BBB permeation); Pe (10^−6 cm s^−1) > 4.39)
C[C@]12CCC(NC(=S)Nc3ccc(S(N)(=O)=O)cc3)CC1=CC[C@@H]1[C@@H]2CC[C@]2(C)C(C(=O)CNc3c4c(cc5ccccc35)CCCC4)CC[C@@H]12 (stereo partly drawn) [Compound 28, 4-(3-((8S,9S,10R,13S,14S)-10,13-Dimethyl-17-((1,2,3,4-tetrahydroanthracen-9-yl)glycyl)-2,3,4,7,8,9,10,11,12,13,14,15,16,17-tetradecahydro-1H-cyclopenta[a]phenanthren-3-yl)thioureido)benzenesulfonamide]	31.8 ± 1.08 µM	0.32 ± 0.01 µM	42.2	13.5 ± 0.09 µM	26.37 ± 0.25 µM	
hyocholic acid [Compound 3]						Ki (CA-II): 38.9 µM
C[C@]12CC[C@@H]3c4ccc(O)cc4CC[C@H]3[C@@H]1CCC2=O [oestrone]						Ki (CA-II): 50.8 µM
C[C@]12CC[C@@H]3c4ccc(O)cc4CC[C@H]3[C@@H]1CC[C@H]2O [Compound 4, α-estradiol]						Ki (CA-II): 40.4 µM
CC(=O)C1CC[C@H]2[C@@H]3CC=C4CC(NC(=S)Nc5ccc(S(N)(=O)=O)cc5)CC[C@]4(C)[C@H]3CC[C@]12C (stereo partly drawn) [Compound 15, 4-(3-((8S,9S,10R,13S,14S)-17-Acetyl-10,13-dimethyl-2,3,4,7,8,9,10,11,12,13,14,15,16,17-tetradecahydro-1H-cyclopenta[a]phenanthren-3yl)thioureido)benzenesulfonamide]	48.9 ± 1.37 µM	13 ± 0.18 µM	4.8	63 ± 1.23 µM	9.25 ± 0.17 µM	inhibition of Aβ fibrils (Aβ1–42 peptide): approximately 60%; viability at 5 µM (SH-SY5Y cells; Homo sapiens, SH-SY5Y, read-out: cell viability): ~75%
C[C@]12CCC(NC(=S)Nc3ccc(S(N)(=O)=O)cc3)CC1=CC[C@@H]1[C@@H]2CC[C@]2(C)C(C(=O)CN3c4ccccc4Sc4ccccc43)CC[C@@H]12 (stereo partly drawn) [Compound 27, 4-(3-((8S,9S,10R,13S,14S)-17-(2-(10H-Phenothiazin-10-yl)acetyl)-10,13-dimethyl-2,3,4,7,8,9,10,11,12,13,14,15,16,17-tetradecahydro-1H-cyclopenta[a]phenanthren-3-yl)thioureido)benzenesulfonamide]	5.18 ± 0.12 µM	0.094 ± 0.002 µM	166.7	15.01 ± 0.03 µM	5.78 ± 0.07 µM	inhibition of Aβ fibrils (Aβ1–42 peptide): 85%; protection of SH-SY5Y cells from the toxicity of the Aβ peptide (SH-SY5Y cells; SH-SY5Y cells incubated with Aβ1–42): effectively protected; cytotoxicity (SH-SY5Y cells; SH-SY5Y cells, 5 μM): completely non-cytotoxic; Prediction of CNS penetration [2]: High (‘CNS+’ (prediction of high BBB permeation); Pe (10^−6 cm s^−1) > 4.39); BBB penetration in PAMPA assay [2]: BBB penetrants; Papp (in vitro): 18.1 ×10⁻⁶ cm/s
CCn1cc(C(=O)O)c(=O)c2cc(F)c(N3CCNC(C)C3)c(F)c21 (stereo not shown) [Lomefloxacin, reference compound]						Prediction of CNS penetration [2]: No (‘CNS−’ (prediction of low BBB permeation); Pe (10^−6 cm s^−1) < 1.78)
